Measured values reported in the NIST ThermoML archive (doi:10.1016/j.fluid.2011.08.020).

Conditions: Liquid, Variable volume cell

CCCCCCCCCCCCCCCCCCCC [eicosane]
Conditions	mass density [kg/m3]
323.65 K, 7300 kPa	771
323.65 K, 14900 kPa	777
323.65 K, 21400 kPa	784
323.65 K, 27400 kPa	787
323.65 K, 34200 kPa	789
422.85 K, 7400 kPa	711
422.85 K, 14300 kPa	719
422.85 K, 20600 kPa	723
422.85 K, 27900 kPa	730
422.85 K, 34600 kPa	735
422.85 K, 54200 kPa	748
422.85 K, 81600 kPa	765
422.85 K, 109200 kPa	781
422.85 K, 136100 kPa	792
422.85 K, 169500 kPa	806
422.85 K, 203100 kPa	818
422.85 K, 235500 kPa	829
422.85 K, 260000 kPa	837
522.55 K, 16400 kPa	661
522.55 K, 28300 kPa	676
522.55 K, 41900 kPa	691
522.55 K, 55500 kPa	706
522.55 K, 69600 kPa	719
522.55 K, 82500 kPa	727
522.55 K, 109200 kPa	744
522.55 K, 138200 kPa	763
522.55 K, 173100 kPa	777
522.55 K, 204700 kPa	791
522.55 K, 239800 kPa	805
522.55 K, 258000 kPa	810

CCCCCCCCCCCCCCCC [hexadecane]
Conditions	mass density [kg/m3]
323.65 K, 14900 kPa	758
323.65 K, 27900 kPa	769
323.65 K, 41500 kPa	779
323.65 K, 55500 kPa	787
323.65 K, 69400 kPa	792
323.65 K, 81300 kPa	799
323.65 K, 109700 kPa	807
422.85 K, 14100 kPa	700
422.85 K, 27900 kPa	713
422.85 K, 41200 kPa	724
422.85 K, 55500 kPa	734
422.85 K, 69800 kPa	743
422.85 K, 82800 kPa	750
422.85 K, 108800 kPa	765
422.85 K, 136900 kPa	778
422.85 K, 170700 kPa	792
422.85 K, 204300 kPa	804
422.85 K, 236500 kPa	815
422.85 K, 262300 kPa	823
522.55 K, 15100 kPa	643
522.55 K, 27100 kPa	660
522.55 K, 42000 kPa	675
522.55 K, 55400 kPa	687
522.55 K, 69100 kPa	698
522.55 K, 82100 kPa	707
522.55 K, 107900 kPa	723
522.55 K, 135800 kPa	738
522.55 K, 170100 kPa	755
522.55 K, 203300 kPa	769
522.55 K, 235800 kPa	782
522.55 K, 255000 kPa	788

CCCCCCCCCCCCCCCCCC [octadecane]
Conditions	mass density [kg/m3]
323.65 K, 7000 kPa	764
323.65 K, 14400 kPa	769
323.65 K, 28300 kPa	778
323.65 K, 42200 kPa	788
323.65 K, 55600 kPa	797
323.65 K, 68900 kPa	800
422.85 K, 7700 kPa	702
422.85 K, 15100 kPa	711
422.85 K, 29400 kPa	724
422.85 K, 42500 kPa	732
422.85 K, 56100 kPa	741
422.85 K, 73200 kPa	752
422.85 K, 84500 kPa	761
422.85 K, 110000 kPa	774
422.85 K, 138500 kPa	787
422.85 K, 171700 kPa	801
422.85 K, 206100 kPa	813
422.85 K, 235500 kPa	823
422.85 K, 255900 kPa	829
522.55 K, 15300 kPa	651
522.55 K, 29400 kPa	668
522.55 K, 43200 kPa	681
522.55 K, 56400 kPa	692
522.55 K, 70800 kPa	703
522.55 K, 84400 kPa	712
522.55 K, 110000 kPa	727
522.55 K, 137800 kPa	742
522.55 K, 170400 kPa	757
522.55 K, 205300 kPa	771
522.55 K, 235700 kPa	782
522.55 K, 257000 kPa	790
